Data as given in patent US20250129430A1, “HIGH ATP-AFFINITY PROTEIN AS THERAPEUTIC TARGET FOR INTRACTABLE CANCER MOLECULAR SUBTYPES AND INHIBITOR THEREOF” (VeraVerse Co., Ltd., priority 2021, published 2025).

Experiments:
Test in all cases: Cell viability drug screen, 12-point dose-response AUC
Type in all cases: cell-based, human
[1] = test system: FU97; design: Average Area Under the Viability Curve (AUC), AUC norm value: scale not given here; settings: FU97 cells; 72 hours
Method: (§1) Cells cultured for cell-based drug assay were inoculated into a 96-well white optical plate (Corning) at 5×10^3 cells per well. After 24 hours after inoculation, a 2.5 MJT (primary screen) or a half-log 12-serial diluent (secondary screen) of the pharmacological compound contained in DMSO is added to the cells with a robot using a BioMek FXp liquid processor (Beckman) to add to the cells at 50 mM. The final drug concentration in the 5 ns range and the DMSO specification control (0.5%) were calculated. The cells were then further incubated at 37° C. in a 5% CO2 incubator for 72 hours prior to measuring cell viability using the extra-GLO assay kit (Promega). The luminescent properties were measured after 15 min incubation at room temperature using a plate stacker equipped with a plate stacker. The normalized viability for the DMSO-based control was measured to generate a cell line-specific 12-point dose-response curve for each pharmacological compound, and then the area under the curve (AUC) was calculated using a trapezoidal method.

[2] = test system: YCC11; settings: YCC11 cells (SEM subtype); 72 hours
Method: (§2) An FDA-approved small-molecule pharmacological compound (#L1300) and an anticancer compound for research (#L2000) were purchased from Selecckchem and a 10 mM solution was prepared in DMSO. A total of 1,345 compounds were tested the cell viability of the seven EMT gastric cancer cell lines.
as §1, with “method. […] The results of the repeated experiments were averaged to generate AUC values for each cell line for each compound.” for “method.”

[3] = test system: MKN28; settings: MKN28 cells; 72 hours
Method: as §2
as §1, with “method. […] The results of the repeated experiments were averaged to generate AUC values for each cell line for each compound.” for “method.”

[4] = test system: SNU719; settings: SNU719 cells; 72 hours
Method: as §2
as §1, with “method. […] The results of the repeated experiments were averaged to generate AUC values for each cell line for each compound.” for “method.”

[5] = test system: Hs746T; settings: Hs746T cells (SEM subtype); 72 hours
Method: as §2
as §1, with “method. […] The results of the repeated experiments were averaged to generate AUC values for each cell line for each compound.” for “method.”

[6] = test system: SNU638; settings: SNU638 cells; 72 hours
Method: as §2
as §1, with “method. […] The results of the repeated experiments were averaged to generate AUC values for each cell line for each compound.” for “method.”

[7] = test system: NCC24; settings: NCC24 cells; 72 hours
Method: as §2
as §1, with “method. […] The results of the repeated experiments were averaged to generate AUC values for each cell line for each compound.” for “method.”

[8] = test system: SNU16; settings: SNU16 cells; 72 hours
Method: as §2
as §1, with “method. […] The results of the repeated experiments were averaged to generate AUC values for each cell line for each compound.” for “method.”

[9] = test system: NCI_N87; settings: NCI_N87 cells; 72 hours
Method: as §2
as §1, with “method. […] The results of the repeated experiments were averaged to generate AUC values for each cell line for each compound.” for “method.”

[10] = test system: SNU216; settings: SNU216 cells (non-SEM subtype); 72 hours
Method: as §2
as §1, with “method. […] The results of the repeated experiments were averaged to generate AUC values for each cell line for each compound.” for “method.”

[11] = test system: OCUM1; settings: OCUM1 cells; 72 hours
Method: as §2
as §1, with “method. […] The results of the repeated experiments were averaged to generate AUC values for each cell line for each compound.” for “method.”

[12] = test system: AGS; settings: AGS cells (non-SEM subtype); 72 hours
Method: as §2
as §1, with “method. […] The results of the repeated experiments were averaged to generate AUC values for each cell line for each compound.” for “method.”

[13] = test system: YCC3; settings: YCC3 cells; 72 hours
Method: as §2
as §1, with “method. […] The results of the repeated experiments were averaged to generate AUC values for each cell line for each compound.” for “method.”

[14] = test system: SK4; settings: SK4 cells (SEM subtype); 72 hours
Method: as §2
as §1, with “method. […] The results of the repeated experiments were averaged to generate AUC values for each cell line for each compound.” for “method.”

[15] = test system: NCC19; settings: NCC19 cells; 72 hours
Method: as §2
as §1, with “method. […] The results of the repeated experiments were averaged to generate AUC values for each cell line for each compound.” for “method.”

[16] = test system: KATO3; settings: KATO3 cells; 72 hours
Method: as §2
as §1, with “method. […] The results of the repeated experiments were averaged to generate AUC values for each cell line for each compound.” for “method.”

[17] = test system: SNU484; settings: SNU484 cells (SEM subtype); 72 hours
Method: as §2
as §1, with “method. […] The results of the repeated experiments were averaged to generate AUC values for each cell line for each compound.” for “method.”

[18] = test system: MKN45; settings: MKN45 cells (non-SEM subtype); 72 hours
Method: as §2
as §1, with “method. […] The results of the repeated experiments were averaged to generate AUC values for each cell line for each compound.” for “method.”

[19] = test system: SNU1; settings: SNU1 cells; 72 hours
Method: as §2
as §1, with “method. […] The results of the repeated experiments were averaged to generate AUC values for each cell line for each compound.” for “method.”

[20] = test system: SNU668; settings: SNU668 cells (SEM subtype); 72 hours
Method: as §2
as §1, with “method. […] The results of the repeated experiments were averaged to generate AUC values for each cell line for each compound.” for “method.”

[21] = test system: SNU601; settings: SNU601 cells; 72 hours
Method: as §2
as §1, with “method. […] The results of the repeated experiments were averaged to generate AUC values for each cell line for each compound.” for “method.”

[22] = test system: SNU1750; settings: SNU1750 cells (SEM subtype); 72 hours
Method: as §2
as §1, with “method. […] The results of the repeated experiments were averaged to generate AUC values for each cell line for each compound.” for “method.”

[23] = test system: SNU620; settings: SNU620 cells; 72 hours
Method: as §2
as §1, with “method. […] The results of the repeated experiments were averaged to generate AUC values for each cell line for each compound.” for “method.”

[24] = test system: NCC59; settings: NCC59 cells; 72 hours
Method: as §2
as §1, with “method. […] The results of the repeated experiments were averaged to generate AUC values for each cell line for each compound.” for “method.”

[25] = test system: MKN74; settings: MKN74 cells; 72 hours
Method: as §2
as §1, with “method. […] The results of the repeated experiments were averaged to generate AUC values for each cell line for each compound.” for “method.”

[26] = test system: SNU1967; settings: SNU1967 cells; 72 hours
Method: as §2
as §1, with “method. […] The results of the repeated experiments were averaged to generate AUC values for each cell line for each compound.” for “method.”

[27] = test system: MKN1; settings: MKN1 cells; 72 hours
Method: as §2
as §1, with “method. […] The results of the repeated experiments were averaged to generate AUC values for each cell line for each compound.” for “method.”

[28] = test system: YCC2; settings: YCC2 cells; 72 hours
Method: as §2
as §1, with “method. […] The results of the repeated experiments were averaged to generate AUC values for each cell line for each compound.” for “method.”

[29] = test system: NCC20; settings: NCC20 cells; 72 hours
Method: as §2
as §1, with “method. […] The results of the repeated experiments were averaged to generate AUC values for each cell line for each compound.” for “method.”

SMILES	Average Area Under the Viability Curve (AUC), AUC norm value [2]	Average Area Under the Viability Curve (AUC), AUC norm value [3]	Average Area Under the Viability Curve (AUC), AUC norm value [4]	Average Area Under the Viability Curve (AUC), AUC norm value [5]	Average Area Under the Viability Curve (AUC), AUC norm value [6]	Average Area Under the Viability Curve (AUC), AUC norm value [7]	Average Area Under the Viability Curve (AUC), AUC norm value [8]	Average Area Under the Viability Curve (AUC), AUC norm value [9]	Average Area Under the Viability Curve (AUC), AUC norm value [10]	Average Area Under the Viability Curve (AUC), AUC norm value [11]	Average Area Under the Viability Curve (AUC), AUC norm value [12]	Average Area Under the Viability Curve (AUC), AUC norm value [13]	Average Area Under the Viability Curve (AUC), AUC norm value [14]	Average Area Under the Viability Curve (AUC), AUC norm value [15]	Average Area Under the Viability Curve (AUC), AUC norm value [16]	Average Area Under the Viability Curve (AUC), AUC norm value [17]	Average Area Under the Viability Curve (AUC), AUC norm value [18]	Average Area Under the Viability Curve (AUC), AUC norm value [19]	Average Area Under the Viability Curve (AUC), AUC norm value [20]	Average Area Under the Viability Curve (AUC), AUC norm value [21]	further results
CC(C)[C@H](C(=O)Nc1ccc(C(=O)NO)cc1)c1ccccc1 [AR-42 (HDAC-42), AR-42]	−0.3298	0.07777	2.169	0.3259	−0.7804	−0.6217	−1.427	−0.1344	0	−0.3936	−1.186	0.6875	−0.3617	1.026	0.7324	0.127	1.962	−0.3147	0.2515	1.874	Average Area Under the Viability Curve (AUC), AUC norm value [1]: −1.358; Average Area Under the Viability Curve (AUC), AUC norm value [22]: −1.401; Average Area Under the Viability Curve (AUC), AUC norm value [23]: −1.197; Average Area Under the Viability Curve (AUC), AUC norm value [24]: 2.102; Average Area Under the Viability Curve (AUC), AUC norm value [25]: 0.1789; Average Area Under the Viability Curve (AUC), AUC norm value [26]: −0.9137; Average Area Under the Viability Curve (AUC), AUC norm value [27]: 0.9532; Average Area Under the Viability Curve (AUC), AUC norm value [28]: −0.00569; Average Area Under the Viability Curve (AUC), AUC norm value [29]: 0.06736
Cc1ccc(C(=O)N(CCCN)[C@@H](c2nc3cc(Cl)ccc3c(=O)n2Cc2ccccc2)C(C)C)cc1 [Ispinesib (SB-715992), Ispinesib]	−1.381	−1.956	2.542	1.046	−0.203	−0.8348	−1.935	−0.0052	1.801	1.297	−2.131	2.007	−0.8267	1.111	2.999	−0.9509	1.833	−1.68	0.1001	−1.371	Average Area Under the Viability Curve (AUC), AUC norm value [22]: 0.2265; Average Area Under the Viability Curve (AUC), AUC norm value [23]: −1.255; Average Area Under the Viability Curve (AUC), AUC norm value [24]: 2.6543; Average Area Under the Viability Curve (AUC), AUC norm value [25]: 0; Average Area Under the Viability Curve (AUC), AUC norm value [26]: 1.562; Average Area Under the Viability Curve (AUC), AUC norm value [27]: −1.178; Average Area Under the Viability Curve (AUC), AUC norm value [28]: 0.7987; Average Area Under the Viability Curve (AUC), AUC norm value [29]: −0.9939
O=C(Nc1c[nH]nc1-c1nc2ccc(CN3CCOCC3)cc2[nH]1)NC1CC1 [AT9283]	−1.467	−1.903	3.019	0.9084	−0.01142	−0.6909	−3.809	0.1418	0.5323	0	−0.9303	0.6619	−0.4441	2.247	0.5115	−1.872	−0.1996	−3.743	0.6968	1.648	Average Area Under the Viability Curve (AUC), AUC norm value [22]: −1.7502; Average Area Under the Viability Curve (AUC), AUC norm value [23]: −4.059; Average Area Under the Viability Curve (AUC), AUC norm value [24]: 0.5882; Average Area Under the Viability Curve (AUC), AUC norm value [25]: 0.4728; Average Area Under the Viability Curve (AUC), AUC norm value [26]: −0.1244; Average Area Under the Viability Curve (AUC), AUC norm value [27]: −2.315; Average Area Under the Viability Curve (AUC), AUC norm value [28]: 0.07527; Average Area Under the Viability Curve (AUC), AUC norm value [29]: −2.941
